Measured values: patent US12617813B2, “Glycosylated histone deacetylase inhibitors and methods of making and using the same” (Georgia Tech Research Corporation, priority 2020, dated 2026)

What was measured:
HDAC1 = HDAC1 (Homo sapiens, UniProt Q13547); experiment: HDAC inhibition, HDAC1; type: biochemical
HDAC2 = HDAC2 (Homo sapiens, UniProt Q92769); experiment: HDAC inhibition, HDAC2; type: biochemical
HDAC6 = molecular target: T1, HDAC6 (Homo sapiens, UniProt Q9UBN7); experiment: HDAC inhibition, HDAC6; type: biochemical
T1 sequence (Q9UBN7 1-1215): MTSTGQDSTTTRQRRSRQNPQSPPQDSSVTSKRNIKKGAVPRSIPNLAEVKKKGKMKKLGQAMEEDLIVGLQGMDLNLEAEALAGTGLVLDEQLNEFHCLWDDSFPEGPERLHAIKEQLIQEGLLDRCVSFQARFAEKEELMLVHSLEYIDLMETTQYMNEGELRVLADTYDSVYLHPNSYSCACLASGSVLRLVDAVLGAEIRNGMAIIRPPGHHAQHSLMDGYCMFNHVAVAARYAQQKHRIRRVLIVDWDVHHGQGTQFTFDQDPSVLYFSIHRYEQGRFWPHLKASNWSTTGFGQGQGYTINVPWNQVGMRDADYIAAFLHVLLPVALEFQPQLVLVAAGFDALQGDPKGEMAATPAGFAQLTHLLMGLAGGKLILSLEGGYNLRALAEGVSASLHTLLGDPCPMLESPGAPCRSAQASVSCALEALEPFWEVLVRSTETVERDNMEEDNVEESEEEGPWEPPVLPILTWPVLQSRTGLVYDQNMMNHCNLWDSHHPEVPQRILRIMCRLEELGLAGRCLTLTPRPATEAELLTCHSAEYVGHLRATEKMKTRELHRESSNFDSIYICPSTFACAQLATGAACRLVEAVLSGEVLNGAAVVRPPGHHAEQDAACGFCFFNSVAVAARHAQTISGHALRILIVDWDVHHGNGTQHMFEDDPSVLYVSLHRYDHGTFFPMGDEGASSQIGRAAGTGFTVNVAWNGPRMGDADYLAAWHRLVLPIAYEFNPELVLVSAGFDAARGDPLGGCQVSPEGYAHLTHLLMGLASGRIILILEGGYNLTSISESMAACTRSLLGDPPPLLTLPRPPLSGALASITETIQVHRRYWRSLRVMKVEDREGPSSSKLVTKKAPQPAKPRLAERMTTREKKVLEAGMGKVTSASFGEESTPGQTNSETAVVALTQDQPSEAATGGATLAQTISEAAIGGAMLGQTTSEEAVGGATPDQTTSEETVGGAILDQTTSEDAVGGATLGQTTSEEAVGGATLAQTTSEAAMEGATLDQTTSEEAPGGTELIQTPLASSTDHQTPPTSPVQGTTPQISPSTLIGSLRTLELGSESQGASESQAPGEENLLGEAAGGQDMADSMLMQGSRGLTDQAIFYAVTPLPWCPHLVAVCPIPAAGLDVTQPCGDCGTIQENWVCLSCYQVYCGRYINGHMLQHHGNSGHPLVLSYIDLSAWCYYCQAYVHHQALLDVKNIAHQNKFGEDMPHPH

HDAC8 = molecular target: T2, HDAC8 (Homo sapiens, UniProt Q9BY41); experiment: HDAC inhibition, HDAC8; type: biochemical
T2 sequence (Q9BY41 1-377): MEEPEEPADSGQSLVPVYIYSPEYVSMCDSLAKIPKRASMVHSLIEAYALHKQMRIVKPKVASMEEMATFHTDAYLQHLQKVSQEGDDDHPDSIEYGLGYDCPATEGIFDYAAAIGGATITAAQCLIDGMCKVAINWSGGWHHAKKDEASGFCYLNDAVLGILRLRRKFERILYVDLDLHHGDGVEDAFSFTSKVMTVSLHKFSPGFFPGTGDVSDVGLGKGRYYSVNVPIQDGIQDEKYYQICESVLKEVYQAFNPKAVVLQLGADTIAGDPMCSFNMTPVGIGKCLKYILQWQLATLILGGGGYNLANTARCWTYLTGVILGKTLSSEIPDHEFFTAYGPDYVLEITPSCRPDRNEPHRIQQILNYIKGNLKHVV

[1] = test system: acetylated tubulin and histone H4; experiment: Western blot of on-target effect (HDAC inhibition) in Hep-G2 cells; type: cell-based; conditions: Hep-G2, 1.25 and 2.5 μM, 5 h, Western blot (FIG. 1)
Procedure: SAHA was used as positive control while GAPDH was used to control for protein loading. (1a) Hep-G2 treated with DMSO or 0.1% DMSO solution of SAHA (1.25 μM), STR-V-114 (1.25 μM, 2.5 μM) and STR-V-53 (1.25 μM, 2.5 μM). (1b) Hep-G2 treated with DMSO or 0.1% DMSO solution of SAHA (0.5 μM, 1.25 μM) and STR-I-195 (1.25 μM, 2.5 μM). Cell were treated for 5 h before lysis. Quantifications of gel bands are shown below each gel.

Hep-G2 cell line = experiment: Apoptosis via caspase 3 activation (Western blot) in Hep-G2; type: cell-based; conditions: Hep-G2, 18 h; STR compounds 10 and 20 μM, SAHA 5 μM (FIG. 2)
Procedure: Actin was used to control for protein loading. Cells were treated with DMSO or 0.1% DMSO solution of SAHA (5 μM), STR-V-53 (10 and 20 μM), or STR-I-195 (10 and 20 μM) for 18 h. (a) Cropped gel image showing upregulation on cleaved caspase 3 (clv-caspase 3) relative to the DMSO control. (b) Quantification of relative levels of clv-caspase 3. (Bars show mean plus standard deviation; *P<0.0332; **P<0.0021; ***P<0.0002; ****P<[…]).

Vero cell line = experiment: Apoptosis via caspase 3 activation (Western blot) in Vero; type: cell-based; conditions: Vero (non-transformed model), 18 h; STR compounds 10 and 20 μM, SAHA 5 μM (FIG. 3)
Procedure: Actin was used to control for protein loading. Cells were treated with DMSO or 0.1% DMSO solution of SAHA (5 μM), STR-V-53 (10 and 20 μM), or STR-I-195 (10 and 20 μM) for 18 h. Quantification of gel bands are shown below the gel.

Hep-G2 [2] = experiment: Cell cycle analysis in Hep-G2; type: cell-based; conditions: Hep-G2, 15 μM, 48 h (FIG. 4)
Procedure: Hep-G2 was cultured in all) cm petri dish until 80% confluence. The cell was serum starved overnight before drug treatment. Subsequently, cells were treated with 10 mL of 0.1% DMSO medium, 0.1% DMSO solution of SAHA (5 μM) or STR-V-53 (15 μM), respectively for 48 h. (a) The control group of Hep-G2 (1); SAHA (5 μM) treated group (2); and STR-V-53 (15 μM) treated group (3). […] (b) Cell distribution in each stage. (c) Analysis of the percentage cell population in cell cycle stages.

Hep-G2 [3] = experiment: Cytotoxicity with GLUT2 blockage by Phloretin in Hep-G2; type: cell-based; conditions: Hep-G2 treated with Phloretin 24 h prior to incubation (FIG. 5)
Procedure: Hep-G2 and VERO were treated with Phloretin (Ph) for 24 h prior to incubation with STR-V-53 or SAHA. (a) Hep-G2 treated by STR-V-53 with or without Ph. (b) Hep-G2 treated by SAHA with or without Ph. (c) VERO treated by STR-V-53 with or without Ph. (d) VERO treated with SAHA with or without Ph.

Chain of HDAC2 (Q92769 whole entry): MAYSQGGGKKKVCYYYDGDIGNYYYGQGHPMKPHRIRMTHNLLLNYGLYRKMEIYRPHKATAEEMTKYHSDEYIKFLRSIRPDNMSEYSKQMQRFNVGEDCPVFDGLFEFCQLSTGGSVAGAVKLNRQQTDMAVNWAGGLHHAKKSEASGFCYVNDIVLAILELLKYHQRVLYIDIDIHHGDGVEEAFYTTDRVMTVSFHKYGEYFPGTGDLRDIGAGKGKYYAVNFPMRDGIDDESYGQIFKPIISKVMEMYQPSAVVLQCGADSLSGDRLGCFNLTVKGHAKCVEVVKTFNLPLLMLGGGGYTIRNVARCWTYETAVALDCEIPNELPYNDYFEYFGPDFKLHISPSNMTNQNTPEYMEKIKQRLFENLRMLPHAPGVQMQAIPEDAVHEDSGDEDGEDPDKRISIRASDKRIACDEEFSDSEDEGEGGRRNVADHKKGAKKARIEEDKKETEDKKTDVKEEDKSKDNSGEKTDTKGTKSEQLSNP
Chain of HDAC1 (Q13547 whole entry): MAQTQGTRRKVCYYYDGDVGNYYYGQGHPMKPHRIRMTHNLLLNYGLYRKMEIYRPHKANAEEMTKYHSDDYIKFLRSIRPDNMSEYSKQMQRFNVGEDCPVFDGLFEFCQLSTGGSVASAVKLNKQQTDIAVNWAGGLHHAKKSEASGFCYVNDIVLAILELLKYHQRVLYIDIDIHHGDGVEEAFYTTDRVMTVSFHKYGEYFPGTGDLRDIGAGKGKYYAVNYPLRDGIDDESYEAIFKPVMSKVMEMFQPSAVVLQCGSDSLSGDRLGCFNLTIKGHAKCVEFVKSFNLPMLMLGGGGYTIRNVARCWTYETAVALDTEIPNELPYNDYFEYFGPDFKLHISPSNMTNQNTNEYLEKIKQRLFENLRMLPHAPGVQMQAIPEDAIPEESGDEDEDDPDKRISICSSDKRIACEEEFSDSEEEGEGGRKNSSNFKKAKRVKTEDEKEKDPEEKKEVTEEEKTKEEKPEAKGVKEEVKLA

| IC50 (HDAC1) | IC50 (HDAC2) | IC50 (HDAC6) | IC50 (HDAC8) | Compound | on-target effect (HDAC inhibition): acetylated tubulin and histone H4 levels [1] | apoptosis via caspase 3 activation (clv-caspase 3) (Hep-G2 cell line) | apoptosis (clv-caspase 3) (Vero cell line) | effect on cell cycle (Hep-G2 [2]) | effect of GLUT2 blockage on cytotoxicity (Hep-G2 [3]) |
| --- | --- | --- | --- | --- | --- | --- | --- | --- | --- |
| 14.6 nM | 29.1 nM | 2.51 nM | 464 nM | O=C(CCCCCCn1cc(-c2ccc(OC3O[C@H](CO)[C@@H](O)[C@H](O)C3O)cc2)nn1)NO (stereo in doubt) [STR-I-195, N-hydroxy-7-(4-(4-(((2S,3R,4S,5S,6R)-3,4,5-trihydroxy-6-(hydroxymethyl)-tetrahydro-2H-pyran-2-yl)oxy)phenyl)-1H-1,2,3-triazol-1-yl)heptanamide] | upregulation of acetylated tubulin and histone H4 | induced apoptosis | did not induce apoptosis | – | – |
| – | – | – | – | O=C(CCCCCCC(=O)Nc1ccccc1)NO [SAHA, reference compound] | – | induced apoptosis | induced apoptosis | – | – |
| 20.3 nM | 61.5 nM | 4.5 nM | 2130 nM | O=C(CCCCCCn1cc(-c2ccc3cc(O[C@H]4O[C@H](CO)[C@@H](O)[C@H](O)[C@H]4O)ccc3c2)nn1)NO [STR-V-114, N-hydroxy-7-(4-(6-(((2R,3R,4S,5S,6R)-3,4,5-trihydroxy-6-(hydroxymethyl)-tetrahydro-211-pyran-2-yl)oxy)naphthalen-2-yl)-1H-1,2,3-triazol-1-yl)heptanamide] | upregulation of acetylated tubulin and histone H4 | – | – | – | – |

| Compound | IC50 (HDAC1) | IC50 (HDAC2) | IC50 (HDAC6) | IC50 (HDAC8) | on-target effect (HDAC inhibition): acetylated tubulin and histone H4 levels [1] | apoptosis via caspase 3 activation (clv-caspase 3) (Hep-G2 cell line) | apoptosis (clv-caspase 3) (Vero cell line) | effect on cell cycle (Hep-G2 [2]) | effect of GLUT2 blockage on cytotoxicity (Hep-G2 [3]) |
| --- | --- | --- | --- | --- | --- | --- | --- | --- | --- |
| O=C(CCCCCCn1cc(-c2ccc(O[C@H]3O[C@H](CO)[C@@H](O)[C@H](O)[C@H]3O)cc2)nn1)NO [STR-V-53] | 24.3 nM | 60.1 nM | 3.43 nM | 843 nM | upregulation of acetylated tubulin and histone H4 | induced apoptosis | did not induce apoptosis | cell cycle arrest | attenuates the cytotoxicity |
